From patent US20200016200A1, “MODULATING CYTOTOXIC CELL LYTIC GRANULE POSITIONING TO PROMOTE DIFFUSE KILLING IN CELLULAR THERAPIES” (Baylor College of Medicine, priority 2016, published 2020)
“Also recorded” adds a separate entry of the source.

Tests used:
NK92 cells = assay: Standard 4-hour 51Cr cytotoxicity assay; assay type: cell-based, human; conditions: ciliobrevin D 100 μM vs DMSO
Procedure: (§1) FIGS. 13A-13E. The effect of ciliobrevin D on degranulation and the increase of bystander killing by NK cells. Flow cytometry-based degranulation assay of NK cells treated with ciliobrevin D or DMSO as vehicle control. 721.221 cells were used as targets for YTS cells and K562 cells were used as targets for NK92 and eNK cells. DMSO or ciliobrevin D-treated NK cells were mixed with their respective target cells and co-cultured at 37° C. for 2 hours in the presence of anti-CD107a antibody, GolgiStop (BD) and analyzed using flow cytometry. Numbers in the representative flow cytometry plots indicate the percentage of CD107a positive eNK (13A), YTS (13B), or NK92 (13C) cells. Standard 4-hour 51Cr cytotoxicity assay of NK cells treated with ciliobrevin D (100 μM) or DMSO control. NK resistant Raji cells were used as innocent bystander cells. […] Bystander killing of Raji cells by YTS (13D, red) and NK92 (13E, red) cells both increased with ciliobrevin D treatment. Representative experiments from three independent experiments for YTS and NK92 cells were shown.
(§2) Because directed degranulation with converged granules promoted killing efficiency, ciliobrevin D was used to physically prevent convergence in a cell that had received a convergence signal. It was considered that this would allow us to abrogate the killing efficiency benefit imparted by lytic granule convergence. In order to measure killing of both the target and bystander cells in a single experiment, flow cytometry-based cytotoxicity assays were performed, wherein each cell line was labeled with a unique fluorescent dye in the presence of media containing SYTOX Blue viability indicator dye. […] The viability of YTS ([…]), NK92 (FIG. 14E, 14H) and eNK (FIG. 14F, 14I) was not affected by DMSO or ciliobrevin D treatments. […] To ask if it promoted more collateral damage by NK cells 51Cr-labeled Raji cells were added (to serve as innocent bystanders) along with unlabeled 721.221 or K562 target cells. […] YTS or NK92 cells co-cultured with 51Cr-labeled Raji cells in the absence of 721.221 or K562 were unable to kill Raji cells (FIG. 14J). […] Convergence therefore serves to protect innocent bystander cells in complex cellular environments.
(§3) Standard 51Cr-release assays were performed as previously described (Orange et al., 2011). Where indicated, 51Cr51-labeled target or “bystander” cells were mixed with unlabeled target or “bystander” cells to test the indirect lysis of targets. For ADCC, Raji cells were incubated with 20 μg/ml of rituximab in complete R10 medium for 20 min at 37° C., and washed three times before adding to eNK cells.
(§4) Where applicable, YTS, NK92 and eNK cells were pretreated with […] ciliobrevin D (Millipore) for 30 min then washed. […]

YTS cells = assay: Standard 4-hour 51Cr cytotoxicity assay; assay type: cell-based, human; conditions: ciliobrevin D 100 μM vs DMSO
Procedure: as §1, §2, §3, §4

GD2 CAR-bearing T cells = assay: Live cell confocal microscopy of lytic granule positioning (LysoTracker Red); assay type: cell-based; conditions: ciliobrevin D 50 μM vs DMSO, straight out of culture or 0.5 h post cytokine (IL-7, IL-15) re-addition
Procedure: FIG. 20. […] Live cell confocal microscopy of GD2 CAR-bearing T cells treated with DMSO or ciliobrevin D (50 μM). Lytic granule positioning was tracked using LysoTracker Red. […] The culture medium for GD2 CAR T cells contains IL-7 and IL-15. […] Quantitative analyses of lytic granule distance from the MTOC are shown as a feature of the degree of granule convergence in GD2 CAR-bearing T cells.
Specifically, the inventors have shown convergence in CD19 CAR T cells, CD19 CAR NK cells, PSCA CAR T cells, GD2 CAR NKT cells, HER2 CART cells, and glypican CAR T cells (FIG. 15A). Using a measurement of mean granule distance from the MTOC, CAR cells have varying degrees of converged lytic granules (FIG. 15B).

CD19 CAR T cell = assay: Live cell confocal microscopy of CD19 CAR T cell conjugated with a Daoy-CD19 target cell; assay type: cell-based
Procedure: FIG. 25. […] Live cell confocal microscopy of a ciliobrevin D-treated CD19 CAR T cell conjugated with a Daoy-CD19 target cell. Cell mixtures were imaged every 90 sec for 60 min. Time point 1 (T1) represents the time when imaging started. Target cell death occurred rapidly at T5 (7.5 min) as indicated by uptake of SYTOX Blue viability dye and loss of adherence. […] Red, LysoTracker Red (lytic granules); blue, SYTOX Blue viability dye; green, CD19 CAR.
(§5) Similarly, compared to DMSO, ciliobrevin D-treated CD19 CAR NK cells lyse approximately 24%, 39% and 40% more bystander cells at the concentration of 12.5, 25 and 50 μM, respectively (FIG. 22). […] FIG. 23 and FIG. 24 are time-lapse images of videos of control ([…]) and ciliobrevin D-treated ([…]) CD19 CAR T cells. […] In the control group, however, lytic granules converge immediately upon interacting with the target cell and remain tightly clustered until target is killed by the CD19 CAR T cell as indicated by uptake of the SYTOX Blue viability dye.

CD19 CAR NK cells = assay: Standard 4-hour 51Cr cytotoxicity assay, bystander killing; assay type: cell-based; conditions: for more bystander cells lysed compared to DMSO: wildtype Daoy bystanders, Daoy-CD19 inciting targets
Procedure: FIG. 22. Bystander killing with increasing amounts of ciliobrevin D in the presence of CD19 CAR-bearing NK cells. Standard 4-hour ^51Cr cytotoxicity assay of CD19 CAR NK cells treated with ciliobrevin D (12.5, 25, and 50 μM) or DMSO control. Daoy-CD19 cells were used as inciting target cells to activate CD19 CAR-bearing NK cells. Wildtype Daoy cells were used as innocent bystander cells to measure the degree of collateral damage caused by non-directional degranulation.
as §5

N#CC(C(=O)c1ccc(Cl)cc1Cl)=C1NC(=O)c2ccc(Cl)cc2N1 [ciliobrevin D, 2-(7-chloro-4-oxo-3,4-dihydroquinazolin-2(1H)-ylidene)-3-(2,4-dichlorophenyl)-3-oxopropanenitrile]
lysis of susceptible target cells (51Cr release) (NK92 cells; NK92 against K562): did not substantively alter total killing; also recorded: not affected | non-specific lysis (bystander killing) of 51Cr-labeled Raji cells (NK92 cells; NK92 with unlabeled K562 targets): more non-specific lysis; also recorded: increased | lysis of susceptible target cells (51Cr release) (YTS cells; YTS against 721.221): did not substantively alter total killing; also recorded: slightly increased | non-specific lysis (bystander killing) of 51Cr-labeled Raji cells (YTS cells; YTS with unlabeled 721.221 targets): more non-specific lysis; also recorded: increased | stimulation-induced lytic granule convergence (GD2 CAR-bearing T cells): blocks stimulation-induced convergence | stimulation-induced lytic granule convergence (GD2 CAR-bearing T cells; listed as Ciliobrevin D): dispersed lytic granules | time of target cell death (SYTOX Blue uptake, loss of adherence) (CD19 CAR T cell; ciliobrevin D-treated CD19 CAR T cell, Daoy-CD19 target): 7.5 min | lytic granule positioning during conjugation and killing (CD19 CAR T cell; ciliobrevin D-treated, imaged every 90 sec for 60 min): dispersedly localized lytic granules throughout the video; also recorded: remained dispersed throughout the video | more bystander cells lysed compared to DMSO (CD19 CAR NK cells; 12.5 μM): approximately 24% | more bystander cells lysed compared to DMSO (CD19 CAR NK cells; 25 μM): ~39% | more bystander cells lysed compared to DMSO (CD19 CAR NK cells; 50 μM): ~40% | non-specific lysis of Daoy cells (CD19 CAR NK cells; 12.5, 25 and 50 μM vs DMSO): dose-dependent increases
